Biological target: T1, Chk1 (checkpoint kinase-1) (Homo sapiens, UniProt O14757)
T1 construct: gene CHEK1; recombinant Chk1
T1 sequence (O14757 1-476): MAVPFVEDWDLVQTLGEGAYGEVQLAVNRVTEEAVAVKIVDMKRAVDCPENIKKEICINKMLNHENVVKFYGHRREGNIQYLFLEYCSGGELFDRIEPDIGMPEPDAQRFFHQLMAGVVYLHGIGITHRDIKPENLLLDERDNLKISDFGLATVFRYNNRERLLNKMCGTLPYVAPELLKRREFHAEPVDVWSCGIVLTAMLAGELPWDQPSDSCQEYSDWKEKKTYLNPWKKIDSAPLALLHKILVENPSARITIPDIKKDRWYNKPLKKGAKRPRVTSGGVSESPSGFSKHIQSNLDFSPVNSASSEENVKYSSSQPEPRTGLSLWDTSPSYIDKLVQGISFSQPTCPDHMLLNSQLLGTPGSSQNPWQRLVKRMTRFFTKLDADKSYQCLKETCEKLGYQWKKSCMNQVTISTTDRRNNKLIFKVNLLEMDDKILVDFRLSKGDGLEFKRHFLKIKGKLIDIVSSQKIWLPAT
Test: in vitro inhibition of recombinant Chk1 (assay details not given)
Format: biochemical

## SD1825
  IC50: 29 nM

— paper PMC2131784, “Inhibition of Chk1 Kills Tetraploid Tumor Cells through a p53-Dependent Pathway” (PLoS ONE, 2007)
